These results are taken from BindingDB's records for doi:10.1016/j.bioorg.2016.07.008 (Universiti Teknologi Mara, 2016).

Usually IC50 stands for the concentration that inhibits the measured activity by half. Read a low IC50 as inhibition by little substance.

The target in the test is T1, Beta-glucuronidase (Homo sapiens, UniProt P08236).
T1 sequence (P08236 whole entry): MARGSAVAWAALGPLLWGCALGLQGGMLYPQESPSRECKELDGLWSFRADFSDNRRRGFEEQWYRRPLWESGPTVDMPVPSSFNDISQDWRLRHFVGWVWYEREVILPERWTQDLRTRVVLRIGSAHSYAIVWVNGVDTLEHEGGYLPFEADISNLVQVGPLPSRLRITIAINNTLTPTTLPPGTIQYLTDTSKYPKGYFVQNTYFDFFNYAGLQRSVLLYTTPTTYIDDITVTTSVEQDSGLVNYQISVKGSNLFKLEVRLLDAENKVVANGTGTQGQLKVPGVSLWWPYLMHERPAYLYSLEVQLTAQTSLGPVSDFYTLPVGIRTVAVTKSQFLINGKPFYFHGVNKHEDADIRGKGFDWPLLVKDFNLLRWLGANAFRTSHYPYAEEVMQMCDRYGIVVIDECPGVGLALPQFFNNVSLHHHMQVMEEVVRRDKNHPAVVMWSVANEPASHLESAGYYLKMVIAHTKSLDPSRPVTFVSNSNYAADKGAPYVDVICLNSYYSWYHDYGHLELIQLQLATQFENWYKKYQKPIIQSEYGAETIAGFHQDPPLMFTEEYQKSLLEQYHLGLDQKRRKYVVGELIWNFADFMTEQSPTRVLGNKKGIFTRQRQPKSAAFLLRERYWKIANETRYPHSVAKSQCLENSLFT
The test can be described thus: β-Glucuronidase Bioassay.
Experimental: The total reaction volume was 250 µL. The reaction mixture contained 185 µL of 0.1 M acetate buffer, 5 µL of test compound solution, 10 µL of enzyme solution was incubated at 37 °C for 30 min. […] All assays were run in triplicate.
Take `Cc1ccc(NC(=S)NNC(=O)c2ccc(C(c3c[nH]c4ccccc34)c3c[nH]c4ccccc34)cc2)cc1` [2-(4-(Di(1H-indol-3-yl)methyl)benzoyl)-N-(p-tolyl)hydrazinecarbothioamide (5)]: half-maximal inhibition (IC50) was put at 15 µM.
As for `O=C(NNC(=S)Nc1ccc(Br)cc1)c1ccc(C(c2c[nH]c3ccccc23)c2c[nH]c3ccccc23)cc1` [N-(4-Bromophenyl)-2-(4-(di(1H-indol-3-yl)methyl)benzoyl)hydrazinecarbothioamide (7)], the figure is 33.2 µM; as for `O=C(NNC(=S)Nc1ccc([N+](=O)[O-])cc1)c1ccc(C(c2c[nH]c3ccccc23)c2c[nH]c3ccccc23)cc1` [2-(4-(Di(1H-indol-3-yl)methyl)benzoyl)-N-(4-nitrophenyl)hydrazinecarbothioamide (10)], 12 µM; as for `O=C(NNC(=S)Nc1cccc(Br)c1)c1ccc(C(c2c[nH]c3ccccc23)c2c[nH]c3ccccc23)cc1` [N-(3-Bromophenyl)-2-(4-(di(1H-indol-3-yl)methyl)benzoyl)hydrazinecarbothioamide (13)], 21.4 µM.
For `COc1ccc(NC(=S)NNC(=O)c2ccc(C(c3c[nH]c4ccccc34)c3c[nH]c4ccccc34)cc2)cc1` [2-(4-(Di(1H-indol-3-yl)methyl)benzoyl)-N-(4-methoxyphenyl)hydrazinecarbothioamide (9)] the value was 11.6 µM; for `Cc1cccc(NC(=S)NNC(=O)c2ccc(C(c3c[nH]c4ccccc34)c3c[nH]c4ccccc34)cc2)c1` [2-(4-(Di(1H-indol-3-yl)methyl)benzoyl)-N-(m-tolyl)hydrazinecarbothioamide (11)], 14.7 µM; for `COc1cccc(NC(=S)NNC(=O)c2ccc(C(c3c[nH]c4ccccc34)c3c[nH]c4ccccc34)cc2)c1` [2-(4-(Di(1H-indol-3-yl)methyl)benzoyl)-N-(3-methoxyphenyl)hydrazinecarbothioamide (15)], 28.1 µM.
`COc1ccccc1NC(=S)NNC(=O)c1ccc(C(c2c[nH]c3ccccc23)c2c[nH]c3ccccc23)cc1` [2-(4-(Di(1H-indol-3-yl)methyl)benzoyl)-N-(2-methoxyphenyl)hydrazinecarbothioamide (18)] came in with an IC50 of 9.4 µM.
